Assay results: the supplement of paper PMC10307832

Experiments:
Test in all cases: relative viability (nuclei count vs DMSO), 5 days (fraction); higher = more cells survive
[1] = compound: CN1CCN(CC1)C2=CC(=C(C=C2)NC3=NC(=C(S3)C(=O)C4=C(C=CC=C4Cl)Cl)N)OC [XMD14-99]
Procedure, shortened: (§1)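 After an overnight hold at 37 °C, lung cancer cell lines in 1536-well plates were pinned with five library-drug doses (not always all listed), each √10 from the next, on vehicle-anchored plates. The cells stayed 5 days without fresh medium, then a one-step fix, permeabilisation and Hoechst stain preceded 4× imaging and MetaXpress nuclear counts. A plate passed only with control CV under 25% and at least one doubling. Viability is the median, over plates, of treated-well nuclei relative to vehicle-well nuclei.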

[2] = compound: N[C@@H]1CCCN(c2c(/C=C3\SC(=O)NC3=O)cccc2-c2ccccc2)C1 [AZD1208]
Procedure, shortened: as §1

[3] = compound: CN1CCN(CC1)C2=CC(=C(C=C2)NC3=NC(=C(S3)C(=O)C4=C(C=CC=C4Cl)Cl)N)OC [XMD14-99] + COc1cc2c(Oc3ccc(NC(=O)C4(C(=O)Nc5ccc(F)cc5)CC4)cc3F)ccnc2cc1OCCCN1CCOCC1 [Foretinib] (partner 0.25 µM)
Procedure, shortened: (§2)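 One day after seeding in 1536-well plates, lung cancer cell lines were dosed by pin tool. Dosing was either single-drug or a fixed anchor-drug dose plus five library-drug doses (not always all listed) in √10 steps. After 5 days, nuclei were stained in one fix-and-stain step and counted on 4× images, and relative viability is the nuclei count of treated wells over that of vehicle wells, given as the median of duplicate plates.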

[4] = compound: CN1CCN(CC1)C2=CC(=C(C=C2)NC3=NC(=C(S3)C(=O)C4=C(C=CC=C4Cl)Cl)N)OC [XMD14-99] + CS(=O)(=O)CCNCc1ccc(-c2ccc3ncnc(Nc4ccc(OCc5cccc(F)c5)c(Cl)c4)c3c2)o1 [Lapatinib] (partner 2 µM)
Procedure, shortened: as §2

Work on UMC-11 yielded a relative viability ([1]; 0.08 µM) of 0.968, a relative viability ([1]; 0.8 µM) of 1.02 and a relative viability ([1]; 2.53 µM) of 1. For the same cell line, the relative viability ([1]; 8 µM) was 0.83, the relative viability ([2]; 0.08 µM) was 0.85 and the relative viability ([2]; 0.253 µM) was 0.851. The relative viability ([2]; 0.8 µM) was 0.713, the relative viability ([2]; 2.53 µM) was 0.67 and the relative viability ([2]; 8 µM) was 0.511. It also gave a relative viability ([3]; first compound 0.08 µM) of 1.03, a relative viability ([3]; first compound 0.8 µM) of 1.02 and a relative viability ([3]; first compound 2.53 µM) of 1.03. For the same cell line, the relative viability ([3]; first compound 8 µM) was 0.865, the relative viability ([4]; first compound 0.08 µM) was 1.13 and the relative viability ([4]; first compound 0.8 µM) was 0.969. It also gave a relative viability ([4]; first compound 2.53 µM) of 0.974 and a relative viability ([4]; first compound 8 µM) of 0.744.
